Measurements published in patent US20130005730A1, “NOVEL 1,3-OXAZOLIDINE COMPOUNDS AND THEIR USE AS RENIN INHIBITORS” (priority 2009, published 2013).
Where a name gives a salt, the structure may show the parent alone.

Experiments:
[1] = In vivo bioavailability experiment: plasma aliskiren after a single i.v. or oral dose; conditions: male, Sprague-Dawley, rat, rats, plasma up to 24 h
Description: For comparison, aliskiren hemifumarate was dosed both i.v. (intravenous) and orally. For all experiment, the compounds were administrated to three individually weighted male Sprague-Dawley rats. For all po dosing, the dose was 25 μmole/kg in a dose volume of 8 ml/kg and the dose vehicle was 50% propylene glycol/50% pH 4.75 buffer (0.1M aqueous buffer of NaOAc/HOAc) by volume ratio. […] For the i.v. dosing of the compounds of invention, a vehicle of 45% PEG400/55% pH 4.75 buffer (0.1M aqueous buffer of NaOAc/HOAc) by volume ratio was used and the dose were 5 μmole/kg in a dose volume of 1.5 ml/kg. Male Sprague-Dawley rats were fasted for about 16-17 h before po dosing and fasting lasted about 2-3 h post-dose. Water was given ad libitum. The blood samples were taken at different time points up to 24 h. For i.v. dosing group, at 5 min, 15 min, 30 min, 1 h, 2 h, 4 h, 6 h, 8 h, 24 h. For oral doing group, at 15 min, 30 min, 1 h, 2 h, 4 h, […], 24 h. The blood samples were collected in heparinized tube and centrifuged at 3500 rpm for 5 min. The plasma samples were stored at about −20° C. for analysis.
After the work-up of the plasma samples, LC-MS/MS was used for the quantitation of the aliskiren and the compounds of the invention. Standard curves were made for aliskiren and the substances for study.

[2] = Clinical Pharmacokinetics, 2008, 47, 515-531; cited from earlier work
[3] = Chemical stability at pH 2.0; type: physicochemical; conditions: pH 2 aqueous buffer, 3 h incubation at 37° C., LCMS
Description: (§1) The compounds of the invention were studied for their chemical stability:
10 mM DMSO solution of the compound of the formula (I) was prepared. 10 μl of the solution was added to 1 ml of pH 2 aqueous buffer at 37° C. The solution was kept at 37° C. At each time point, a small aliquote was taken and the sample was analyzed by LCMS.

[4] = Chemical stability at pH 7.4; type: physicochemical; conditions: pH 7.4 aqueous phosphate buffer, 3 h incubation at 37° C., LCMS
Description: as §1
10 mM DMSO solution of the compound of the formula (I) was prepared. 10 μl of the solution was added to 1 ml of pH 7.4 aqueous phosphate buffer at 37° C. The solution was kept at 37° C. At each time points, a small aliquote was taken and the sample was analyzed by LCMS.

[5] = Stability of the isolated compound (observation in synthesis); type: physicochemical; conditions: after column chromatography, brown oil
Description: Chloromethyl (4S,5S)-5-((2S)-2-{[(3-amino-2,2-dimethyl-3-oxopropyl)amino]carbonyl}-3-methylbutyl)-4-{(2S)-2-[4-methoxy-3-(3-methoxypropoxy)benzyl]-3-methylbutyl}-1,3-oxazolidine-3-carboxylate (191 mg) and sodium iodide (135 mg) were mixed with dry acetonitrile and heated under stirring at 75° C. for 1 h 20 min. Full conversion according to LC-MS. Reaction mixture was mixed with water and extracted into DCM, washed with brine, dried over MgSO4. 186 mg of crude product was obtained, which was purified by column chromatography on silica gel (EtOAc) to give 72 mg of pure material as brown oil. […] LCMS: 748.3 [M+1]^+, 770.3 [M+Na]^+.

Row | Compound | Chemical stability pH 2 (decomposition) [3] | Chemical stability pH 7.4 (decomposition) [4] | further results
1 | COCCCOc1cc(C[C@@H](C[C@H](N)[C@@H](O)C[C@H](C(=O)NCC(C)(C)C(N)=O)C(C)C)C(C)C)ccc1OC [Aliskiren hemifumarate] |  |  | AUC(0-t) ([1]; iv, i.v. 5 μmole/kg): 994 ± 162 ng·h/mL; AUC(0-t) ([1]; po, p.o. 25 μmole/kg): 28 ± 20.5 ng·h/mL
2 | COCCCOc1cc(C[C@@H](C[C@H](N)[C@@H](O)C[C@H](C(=O)NCC(C)(C)C(N)=O)C(C)C)C(C)C)ccc1OC [Aliskiren, (2S,4S,5S,7S)—N-(2-Carbamoyl-2-methylpropyl)-5-amino-4-hydroxy-2,7-diisopropyl-8-[4-methoxy-3-(3-methoxypropoxy)phenyl]-octanamide, reference compound] | A (Less than 5% decomposition after 3 h incubation at 37° C.) | A (Less than 5% decomposition after 3 h incubation at 37° C.) | oral bioavailability [2]: about 2.6%
3 | COCCCOc1cc(C[C@@H](C[C@H]2[C@H](C[C@H](C(=O)NCC(C)(C)C(N)=O)C(C)C)OCN2C(=O)OCOC(=O)C(C)(C)C)C(C)C)ccc1OC [Example 6, (4S,5S)-pivaloyloxymethyl 5-[(S)-2-(3-amino-2,2-dimethyl-3-oxopropylcarbamoyl)-3-methylbutyl]-4-{(S)-2-[4-methoxy-3-(methoxypropoxy)benzyl]-3-methylbutyl}oxazolidine-3-carboxylate] | A (Less than 5% decomposition after 3 h incubation at 37° C.) | B (Less than 25% decomposition after 3 h incubation at 37° C.) | 
4 | COCCCOc1cc(C[C@@H](C[C@H]2[C@H](C[C@H](C(=O)NCC(C)(C)C(N)=O)C(C)C)OCN2C(=O)OCOC(=O)OC(C)C)C(C)C)ccc1OC [Example 12, (4S,5S)-(isopropoxycarbonyloxy)methyl 5-[(S)-2-(3-amino-2,2-dimethyl-3-oxopropylcarbamoyl)-3-methylbutyl]-4-{(S)-2-[4-methoxy-3-(methoxypropoxy)benzyl]-3-methylbutyl}oxazolidine-3-carboxylate] | A (Less than 5% decomposition after 3 h incubation at 37° C.) | B (Less than 25% decomposition after 3 h incubation at 37° C.) | 
5 | COCCCOc1cc(C[C@@H](C[C@H]2[C@H](C[C@H](C(=O)NCC(C)(C)C(N)=O)C(C)C)OCN2C(=O)OCI)C(C)C)ccc1OC [Example 14, Iodomethyl (4S,5S)-5-((2S)-2-{[(3-amino-2,2-dimethyl-3-oxopropyl)amino]carbonyl}-3-methylbutyl)-4-{(2S)-2-[4-methoxy-3-(3-methoxypropoxy)benzyl]-3-methylbutyl}-1,3-oxazolidine-3-carboxylate] |  |  | stability of the compound [5]: not stable and decomposes rather rapidly
6 | COCCCOc1cc(C[C@@H](C[C@H]2[C@H](C[C@H](C(=O)NCC(C)(C)C(N)=O)C(C)C)OCN2C(=O)OCOC(=O)C(C)(C)CO)C(C)C)ccc1OC [Example 27, [(3-hydroxy-2,2-dimethylpropanoyl)oxy]methyl (4S,5S)-5-((2S)-2-{[(3-amino-2,2-dimethyl-3-oxopropyl)amino]carbonyl}-3-methylbutyl)-4-{(2S)-2-[4-methoxy-3-(3-methoxypropoxy)benzyl]-3-methylbutyl}-1,3-oxazolidine-3-carboxylate] | A (Less than 5% decomposition after 3 h incubation at 37° C.) | A (Less than 5% decomposition after 3 h incubation at 37° C.) | 
7 | COCCCOc1cc(C[C@@H](C[C@H]2[C@H](C[C@H](C(=O)NCC(C)(C)C(N)=O)C(C)C)OCN2C(=O)OCOC(=O)C2COCOC2)C(C)C)ccc1OC [Example 32, [(1,3-dioxan-5-ylcarbonyl)oxy]methyl (4S,5S)-5-((2S)-2-{[(3-amino-2,2-dimethyl-3-oxopropyl)amino]carbonyl}-3-methylbutyl)-4-{(2S)-2-[4-methoxy-3-(3-methoxypropoxy)benzyl]-3-methylbutyl}-1,3-oxazolidine-3-carboxylate] | A (Less than 5% decomposition after 3 h incubation at 37° C.) | B (Less than 25% decomposition after 3 h incubation at 37° C.) | 
8 | COCCCOc1cc(C[C@@H](C[C@H]2[C@H](C[C@H](C(=O)NCC(C)(C)C(N)=O)C(C)C)OCN2C(=O)OCOC(=O)OC2CCN(C)CC2)C(C)C)ccc1OC [Example 35, ({[(1-methylpiperidin-4-yl)oxy]carbonyl}oxy)methyl (4S,5S)-5-((2S)-2-{[(3-amino-2,2-dimethyl-3-oxopropyl)amino]carbonyl}-3-methylbutyl)-4-{(2S)-2-[4-methoxy-3-(3-methoxypropoxy)benzyl]-3-methylbutyl}-1,3-oxazolidine-3-carboxylate] | A (Less than 5% decomposition after 3 h incubation at 37° C.) | A (Less than 5% decomposition after 3 h incubation at 37° C.) | 
9 | COCCCOc1cc(C[C@@H](C[C@H]2[C@H](C[C@H](C(=O)NCC(C)(C)C(N)=O)C(C)C)OCN2C(=O)OCOC(=O)C2(N)CC2)C(C)C)ccc1OC.O=C(O)C(F)(F)F [Example 43, {[(1-aminocyclopropyl)carbonyl]oxy}methyl (4S,5S)-5-((2S)-2-{[(3-amino-2,2-dimethyl-3-oxopropyl)amino]carbonyl}-3-methylbutyl)-4-{(2S)-2-[4-methoxy-3-(3-methoxypropoxy)benzyl]-3-methylbutyl}-1,3-oxazolidine-3-carboxylate, trifluoroacetate] | A (Less than 5% decomposition after 3 h incubation at 37° C.) | B (Less than 25% decomposition after 3 h incubation at 37° C.) | 
10 | COCCCOc1cc(C[C@@H](C[C@H]2[C@H](C[C@H](C(=O)NCC(C)(C)C(N)=O)C(C)C)OCN2C(=O)OCOC(=O)c2cncn2C)C(C)C)ccc1OC [Example 44, {[(1-methyl-1H-imidazol-5-yl)carbonyl]oxy}methyl (4S,5S)-5-((2S)-2-{[(3-amino-2,2-dimethyl-3-oxopropyl)amino]carbonyl}-3-methylbutyl)-4-{(2S)-2-[4-methoxy-3-(3-methoxypropoxy)benzyl]-3-methylbutyl}-1,3-oxazolidine-3-carboxylate] | A (Less than 5% decomposition after 3 h incubation at 37° C.) | A (Less than 5% decomposition after 3 h incubation at 37° C.) | 
11 | COCCCOc1cc(C[C@@H](C[C@H]2[C@H](C[C@H](C(=O)NCC(C)(C)C(N)=O)C(C)C)OCN2C(=O)OCOC(=O)C2(CN)CC2)C(C)C)ccc1OC [Example 53, {1-[({[((4S,5S)-5-((2S)-2-{[(3-amino-2,2-dimethyl-3-oxopropyl)amino]carbonyl}-3-methylbutyl)-4-{(2S)-2-[4-methoxy-3-(3-methoxypropoxy)benzyl]-3-methylbutyl}-1,3-oxazolidin-3-yl)carbonyl]oxy}methoxy)carbonyl]cyclopropyl}methanaminium trifluoroacetate] | A (Less than 5% decomposition after 3 h incubation at 37° C.) | C (Less than 50% decomposition after 3 h incubation at 37° C.) | 
